“Also recorded” adds a separate entry of the source. Positions of bridges follow the written chain, without caps; N, C: chain ends. Chains are numbered I, II in the order given. No end group written: not given here.
Tests used:
[1] = system: symphysis pubis of ovariectomized estrogen-primed female mice; assay: Mouse symphysis pubis (interpubic ligament) assay; format: in vivo
Method: Mouse interpubic ligament assays were performed essentially as described by Steinetz, et al., 1960, Endocrinology 67:102-115. Ovariectomized virgin female mice were printed with 5 μg estrogen cypionate in 100 μl sesame oil. Five days later the mice were injected subcutaneously with human relaxin, RLF, or mixtures of human relaxin and RLF in 100 μl of 0.1% benzopurpurin 4B. Specifically, groups of five animals received either human relaxin at a suboptimal dose or a mixture of 0.2 μg, 0.4 μg and 0.8 μg human relaxin and 5 μg of RLF as given in FIG. 8. For negative control 100 μl of 0.1% benzopurpurin 4B in water were injected. After 16 hours the mice were killed in an atmosphere of CO2, the symphysis pubis dissected free, and the distance between the interpubic bones measured with a dissecting microscope fitted with transilluminating fiber optics.

[2] = system: washed human sperm; assay: Sperm motility assay; format: cell-based; details: 10 and 100 ng/ml
Source text: Materials And Methods. Semen is obtained by masturbation from healthy volunteers. The sample is allowed to liquefy at room temperature and is then mixed with Minimum Essential Medium (MEM) with Hepes buffer added. This medium is used because it coincides with that washing medium employed by the in vitro clinic at MUSC. The sperm is then separated from the seminal fluid and MEM by centrifugation. The resultant sperm pellet is then resuspended in MEM at room temperature. Aliquots are then place in siliconized centrifuge tubes and one of several compounds added: l)human relaxin 10 ng/ml, 2)human relaxin 100 ng/ml, 3)relaxin-like factor 10 ng/ml, 4)relaxin-like factor 100 ng/ml, 5)one fraction of alkaline gland fluid from stingrays diluted 1:8 with pentoxyfyline. The additive is mixed well with the sperm/medium mixture. Samples are taken at 0, 2, 4, 6 and 24 hour intervals for automated determination of the following parameters: 1)motility, 2)progressivity, 3)path velocity, 4)progressive velocity, 5)track speed, 6)elongation, 7)lateral displacement, 8)cross beat frequency, 9)straightness, 10)linearity. Briefly described, each sample is loaded into a Maker heated specimen chamber and viewed in a light microscope equipped with laser doppler optics (IVOS, Beverly, Mass.).

[3] = system: procollagenase expression, rheumatoid synovial fibroblasts (Strain No. RSF112); assay: Stimulation of procollagenase expression by synovial fibroblasts (gelatin zymography); format: cell-based, human
Source text: A method for detecting and measuring procollagenase formation is described in Unemori, et al., 1991, J. Biol. Chem. 266:23477-482. Such method was modified to measure the expression of procollagenase in the presence of RLF as follows: Materials And Methods. Rheumatoid synovial fibroblasts (Strain No. […] Conditioned media were collected and an aliquot analyzed by gelatin zymography. Procollagenase was identified as a […] doublet at 52/57 kDa. The intensity of the doublet (i.e., the amount of procollagenase expressed, was quantified by scanning densitometry.

[4] = system: fibronectin expression, rheumatoid synovial fibroblasts; assay: Inhibition of fibronectin expression by synovial fibroblasts; format: cell-based, human; details: 100 ng/ml; TGF-β-treated fibroblasts
Source text: The method for detecting and measuring collagen formation in the presence of relaxin described in Unemori and Amento, 1990, J. Biol. Chem. 265:10681-685 has been modified as follows to determine the ability of RLF, in vitro, to modulate the expression of fibronectin.
Materials And Methods. Specifically, using the method described in section 6.7.1., the fibronectin band was identified by size (220 kDa), bacterial collagenase-resistance, and positive staining using commercially available polyclonal anti-fibronectin antibody (Promega). The fibronectin band was scanned densitometrically to estimate levels of expression.

[5] = system: mouse brain relaxin receptor; assay: Relaxin-binding assay, mouse brain crude membranes, porcine relaxin tracer
Method: Relaxin-binding assays were performed as described in Yang, et al., 1992, Endocrinology 130:179-185 and Büllesbach, et al., 1994, Endocrine. 2:1115-1120, using crude membrane preparations of mouse tissue. Mouse brains of 2 mice were collected into 15 ml of chilled buffer (25 mM HEPES, 0.14 M NaCl, 5.7 mM KCI, 0.2 mM phenylmethylsulfonyl-fluoride, and 80 mg/ml soybean trypsin inhibitor, pH 7.5) supplemented with sucrose (0.25 M, final concentration). The tissue was homogenized on ice for 10 s with a Polytron homogenizer (Brinlmann, Westbury, N.Y.) at setting 5. The homogenate was centrifuged at 700 rpm for 10 min at 4° C. and the supernatants were recentrifuged at 10,000×g for 1 h. The pellet was resuspended in 15 ml of ice cold binding buffer, 25 mM HEPES, 0.14 M NaCl, 5.7 mM KCI, 0.2 mM phenylmethylsulfonylfluoride, and 80 mg/ml soybean trypsin inhibitor, pH 7.5, supplemented with 1% bovine serum albumin, and centrifuged for 1 h at 10,000×g. The crude membrane preparation was suspended in 1 ml of binding buffer and 40 μl was used per assay. The assay was performed using 40 μl of tracer (about 100,000 cpm of porcine relaxin tracer=150 pM) and 20 μl of relaxin at various concentrations. The assay was incubated for 1 h at room temperature, and the suspension diluted with 1 ml of wash buffer (25 mM HEPES, 0.14 M NaCl, 5.7 mM KCI, 1% bovine serum albumin, 0.01% NaN3) and centrifuged in Eppendorf centrifuge at 14,000 rpm for 10 min. The supernatant was discarded, the tip of the vial cut and counted in a γ-counter. Nonspecific binding was determined in the presence of 2 μl/ml of unlabeled competitor (0.33 μM). In a typical experiment the specific binding was between 25% and 40% of the total binding.

- stimulation of procollagenase expression ([3]; 1 ng/ml): 0 fold
- stimulation of procollagenase expression ([3]; 10 ng/ml): 2.0 fold
- stimulation of procollagenase expression ([3]; 100 ng/ml): 4.2 fold
- crossreactivity with the brain relaxin receptor ([5]; mouse brain): moderate crossreactivity
- excess that displaces 50% of the relaxin tracer ([5]; mouse brain relaxin receptor preparation): hundred-fold
- 50% Binding ([5]; mouse brain, tracer pRLX): 200 ng
Substance: RLF: synthesized human relaxin-like factor, two-chain peptide (A and B chain, SEQ ID NOS:3 and 4), three disulfide links (alpha AAATNPARYCCLSGCTQQDLLTLCPY; beta PTPEMREKLCGHHFVRALVRVCGGPRWSTEA; disulfide I:11-II:10; also: two further disulfide bonds, places not given here)
- effect on the activity of human relaxin in the mouse bioassay ([1]; 0.2, 0.4, 0.8 μg human relaxin with 5 μg RLF): significantly increased the activity of human relaxin
- optimal RLF amount for relaxin enhancement ([1]; in the presence of 0.5 μg of human relaxin): 5 µg
- effect of RLF on the relaxin effect at maximal dose ([1]; maximal dose of both): still augmented
- symphyseal widening, RLF alone ([1]; subcutaneous, 16 hours): no effect; also recorded: does not cause symphyseal widening
- potency in maintaining sperm motility relative to relaxin [2]: as potent in maintaining sperm motility at both doses as was relaxin
- effect on sperm motility compared to untreated controls ([2]; 0-24 h): preserve the motility
- decrease of TGF-β-stimulated fibronectin expression [4]: 17%

— patent US6949506B2, “Relaxin-like factor and methods and uses thereof” (BAS Medical, Inc., priority 1995, dated 2005)
